According to the NIST ThermoML archive (doi:10.1016/j.jct.2016.03.035):
Values joined by “and” are separate entries in the source; they are usually repeats but may differ in a detail not shown here. Equal values may be shown once. Numbers after ± are expanded uncertainties.

Experiment: xn = mol fraction of the nth substance listed
Details: Gas, Buoyancy - hydrostatic balance with magnetic suspension - two sinkers

Question: What does the source list for `C` [methane] + CCC?
Answer: mass density (273.15 K, 931.05 kPa, x1 = 0.5069): 13.4744 ± 0.017 kg/m3; mass density (273.15 K, 971.34 kPa, x1 = 0.5069): 14.1245 ± 0.014 kg/m3; mass density (273.15 K, 971.91 kPa, x1 = 0.5069): 14.1339 ± 0.014 kg/m3; mass density (273.15 K, 972.48 kPa, x1 = 0.5069): 14.1428 ± 0.014 kg/m3; mass density (273.15 K, 980.94 kPa, x1 = 0.5069): 14.2794 ± 0.092 kg/m3; mass density (273.15 K, 986.21 kPa, x1 = 0.5069): 14.3656 ± 0.091 kg/m3; mass density (273.15 K, 991.45 kPa, x1 = 0.5069): 14.4504 ± 0.091 kg/m3; mass density (273.15 K, 1009.5 kPa, x1 = 0.5069): 14.7466 ± 0.0089 kg/m3 and 14.7469 ± 0.009 kg/m3; mass density (273.15 K, 1009.6 kPa, x1 = 0.5069): 14.7472 ± 0.0089 kg/m3; mass density (273.15 K, 1015.4 kPa, x1 = 0.5069): 14.8425 ± 0.0089 kg/m3; mass density (273.15 K, 1015.5 kPa, x1 = 0.5069): 14.8423 ± 0.009 kg/m3; mass density (273.15 K, 1299.2 kPa, x1 = 0.7498): 14.1894 ± 0.011 kg/m3; mass density (273.15 K, 1700.4 kPa, x1 = 0.7498): 19.0431 ± 0.013 kg/m3 and 19.0434 ± 0.013 kg/m3; mass density (273.15 K, 1999 kPa, x1 = 0.7498): 22.8336 ± 0.018 kg/m3; mass density (273.15 K, 1999.7 kPa, x1 = 0.7498): 22.843 ± 0.017 kg/m3; mass density (273.15 K, 2000.5 kPa, x1 = 0.7498): 22.8522 ± 0.017 kg/m3; mass density (273.15 K, 2295.4 kPa, x1 = 0.7498): 26.7552 ± 0.02 kg/m3; mass density (273.15 K, 2297.1 kPa, x1 = 0.7498): 26.7787 ± 0.02 kg/m3; mass density (273.15 K, 2297.8 kPa, x1 = 0.7498): 26.7892 ± 0.02 kg/m3; mass density (273.15 K, 2309.7 kPa, x1 = 0.7498): 26.9494 ± 0.02 kg/m3; mass density (273.15 K, 2310.5 kPa, x1 = 0.7498): 26.9603 ± 0.02 kg/m3; mass density (273.15 K, 2311.3 kPa, x1 = 0.7498): 26.971 ± 0.019 kg/m3; mass density (273.16 K, 500.9 kPa, x1 = 0.7498): 5.2231 ± 0.0063 kg/m3; mass density (273.16 K, 1299.2 kPa, x1 = 0.7498): 14.1894 ± 0.011 kg/m3; mass density (274.02 K, 674.01 kPa, x1 = 0.2658): 12.0842 ± 0.01 kg/m3; mass density (274.13 K, 674.35 kPa, x1 = 0.2658): 12.084 ± 0.01 kg/m3; mass density (274.25 K, 674.71 kPa, x1 = 0.2658): 12.0838 ± 0.01 kg/m3; mass density (274.37 K, 675.08 kPa, x1 = 0.2658): 12.0836 ± 0.01 kg/m3; mass density (274.5 K, 675.47 kPa, x1 = 0.2658): 12.0837 ± 0.01 kg/m3; mass density (274.64 K, 675.87 kPa, x1 = 0.2658): 12.0831 ± 0.01 kg/m3; mass density (274.78 K, 676.29 kPa, x1 = 0.2658): 12.0823 ± 0.01 kg/m3; mass density (274.93 K, 676.74 kPa, x1 = 0.2658): 12.0821 ± 0.01 kg/m3; mass density (275.09 K, 677.21 kPa, x1 = 0.2658): 12.0819 ± 0.01 kg/m3; mass density (275.26 K, 677.71 kPa, x1 = 0.2658): 12.0812 ± 0.01 kg/m3; mass density (275.43 K, 678.23 kPa, x1 = 0.2658): 12.0807 ± 0.01 kg/m3; mass density (275.61 K, 678.78 kPa, x1 = 0.2658): 12.0804 ± 0.01 kg/m3; mass density (275.81 K, 679.35 kPa, x1 = 0.2658): 12.0795 ± 0.01 kg/m3; mass density (276.01 K, 679.96 kPa, x1 = 0.2658): 12.0795 ± 0.011 kg/m3; mass density (276.22 K, 680.58 kPa, x1 = 0.2658): 12.0783 ± 0.011 kg/m3; mass density (276.44 K, 681.24 kPa, x1 = 0.2658): 12.0781 ± 0.011 kg/m3; mass density (276.67 K, 681.92 kPa, x1 = 0.2658): 12.0776 ± 0.011 kg/m3; mass density (276.89 K, 682.58 kPa, x1 = 0.2658): 12.0781 ± 0.01 kg/m3; mass density (277.08 K, 683.2 kPa, x1 = 0.2658): 12.0796 ± 0.0096 kg/m3; mass density (277.2 K, 683.7 kPa, x1 = 0.2658): 12.0865 ± 0.0089 kg/m3; mass density (293.14 K, 149.9 kPa, x1 = 0.2658): 2.2917 ± 0.0041 kg/m3 and 2.2913 ± 0.0039 kg/m3 and 2.2914 ± 0.0039 kg/m3; mass density (293.14 K, 205.57 kPa, x1 = 0.5069): 2.5567 ± 0.0041 kg/m3 and 2.5566 ± 0.0042 kg/m3; mass density (293.14 K, 258.04 kPa, x1 = 0.2658): 3.9962 ± 0.0042 kg/m3; mass density (293.14 K, 355.08 kPa, x1 = 0.2658): 5.5657 ± 0.0049 kg/m3; mass density (293.14 K, 393.87 kPa, x1 = 0.5069): 4.9714 ± 0.0046 kg/m3; mass density (293.14 K, 469.3 kPa, x1 = 0.2658): 7.4654 ± 0.0051 kg/m3 and 7.465 ± 0.0052 kg/m3; mass density (293.14 K, 568.75 kPa, x1 = 0.2658): 9.168 ± 0.0062 kg/m3 and 9.1681 ± 0.0063 kg/m3; mass density (293.14 K, 613.82 kPa, x1 = 0.5069): 7.8848 ± 0.0061 kg/m3; mass density (293.14 K, 655.64 kPa, x1 = 0.2658): 10.6962 ± 0.0066 kg/m3; mass density (293.14 K, 955.23 kPa, x1 = 0.2658): 16.2976 ± 0.0097 kg/m3; mass density (293.14 K, 1006.2 kPa, x1 = 0.5069): 13.3635 ± 0.0095 kg/m3 and 13.3634 ± 0.0094 kg/m3; mass density (293.14 K, 1056.3 kPa, x1 = 0.2658): 18.3228 ± 0.01 kg/m3 and 18.3227 ± 0.01 kg/m3 and 18.3219 ± 0.011 kg/m3; mass density (293.14 K, 1105.6 kPa, x1 = 0.2658): 19.3403 ± 0.01 kg/m3; mass density (293.14 K, 1105.7 kPa, x1 = 0.2658): 19.3405 ± 0.01 kg/m3; mass density (293.14 K, 1209.2 kPa, x1 = 0.5069): 16.3578 ± 0.012 kg/m3; mass density (293.14 K, 1399.6 kPa, x1 = 0.5069): 19.2779 ± 0.012 kg/m3; mass density (293.14 K, 1807.2 kPa, x1 = 0.5069): 25.9505 ± 0.014 kg/m3 and 25.9502 ± 0.014 kg/m3; mass density (293.15 K, 205.57 kPa, x1 = 0.5069): 2.5568 ± 0.004 kg/m3; mass density (293.15 K, 258.04 kPa, x1 = 0.2658): 3.9961 ± 0.0045 kg/m3 and 3.9961 ± 0.0042 kg/m3
